Data as given in patent EP1134585B1, “Biosensor and method for the monitoring of herbicides” (CONSIGLIO NAZIONALE DELLE RICERCHE, priority 2000, dated 2001).

What was measured:
PhC2,6―Pro = settings: cited from earlier work
PS II = PS II treated with CdCl2, refrigeration at 5°C, flow 0,2-2,0 ml/m
Description: To further increase the stability of the biomediator the usefulness of a system for the refrigeration of the solution containing herbicide forwarded into the measuring cell experimentally was observed.

I1e229->Ala = settings: cited from earlier work
Phe216->Thr = settings: cited from earlier work
Gly228->Arg = settings: cited from earlier work
D1 protein A/a251->lIe = D1 protein A/a251->lIe (Chlamydomonas reinhardtii, UniProt P07753, A251I); settings: cited from earlier work
monoclonal antibodies = settings: ELISA (Schneider et al. 1994); cited from earlier work
[1] = molecular target: D1 protein Phe211→Ala Met214→Thr (Chlamydomonas reinhardtii, UniProt P07753, F211A/M214T); settings: cited from earlier work
[2] = molecular target: T1, thylakoids from Spinacia oleracea (Spinacia oleracea, UniProt P69560); assay: Biosensor fluorescence response (Tables B and C); assay type: biochemical; settings: for inhibition at 0.01 µM: control printed as 100
T1 construct: biomediator based on thylakoids from Spinacia oleracea; from tissue; host or cells: thylakoids isolated from mature spinach plants
Description: (§1) According to a specially advantageous embodiment, Bioherbi is an equipment weighing in all about […], occupies a space of about 30x30x20 cm and is constituted as reported below. • a) flow cell wherein the biomediator is immobilized. […] The black plastic material allows to fit the biomediator in the dark. The biomediator in entrapped in the inner section. The surface tightness of the reading hole is obtained using a glass cover plate for microscopy. The inner cell, where the mediator is entrapped, has un volume from 50 to 300 µl. • b) a peristaltic pump is the hydraulic part to withdraw the sample containing the herbicide to be analyzed, which moves said sample through the flow cell and brings it in close contact with the biomediator. According to a specially advantageous embodiment a single block is used as holder for the herbicide and peristaltic pump. The flow can be varied from 0,2 to 2 ml/min depending on the sample. Higher flow increases the sensitivity to the herbicide because the latter interacts with a higher number of bonding sites on PS II. By laboratory tests it was found out that, when the solution of the herbicide flows, the efficiency of the fluorescence measure could be impaired by light scattering effects. Accordingly it is preferred to carry out the measure in stopped-flow conditions using a flow switch. The biomediator immobilized within the flow cell, following each measure, is washed and regenerated by a suitable buffer solution. A valve allows to forward alternatively the flow of the buffer or the solution containing the herbicide to be analyzed. • c) optical fiber fluorescence sensor closely connected to the flow cell. The fluorescence emitted from green plants depends on the photosynthetic activity. Recent studies on fluorescence measuring techniques made this feature a very important tool in the basic and applied research about the plant physiology (D Lazar, 1999, Biochim Biophys Acta 1-28). Bioherbi analyzer measures the fluorescence emitted from photosynthetic complexes and modifications determined by the presence of herbicide. The sensor is tightly connected to the flow cell to avoid any infiltration of external light and provides the excitation light detecting the fluorescence signal. The excitation light is emitted from an emitting diode at a very narrow wavelength of about 650 nm, which is quickly absorbed by the Photosystem II of the photosynthetic organisms and has the advantage in that it provides light with reduced heating and emits the signal very quickly. A "feedback" optical circuit controls and adjusts the variations of the intensity of the emitted light also resulting from variations of ambient temperature. The analyzer consists of an high capacity photodiode associated to an amplifier. The optical system responds perfectly to the fluorescence emission wavelength of 700 nm and stops the reflection light of lower wavelength resulting from the emission light. The sensor is connected to the control computer by an about 30 cm long fiber. According to a variation of the biosensor we used a more complex fluorescence system, adjustable as the excitation light in order to allow the use, as biomediator, of photosynthetic organisms requiring specific wavelengths. • e) a control and data processing computer. […] The concentration of the herbicide is proportional to the area over the fluorescence curve (Table 1A-B); the inhibition of this area is closely related to the washing times whereby it is possible to determinate the concentration of the herbicide also using the washing time required to obtain an almost complete inhibition of the area (see Table 1C). The fluorescence signal received by the sensor is processed within the control chamber by transduction systems of the signal and analog-to-digital converters. The system is computerized with a very sophisticated microprocessor able to process the data of the fluorescence signal. […]

D1 protein Asn266->Asp = settings: code loxlla; cited from earlier work
[3] = test system: PS II isolated from thermophilic cyanobacteria; settings: immobilized PS II, Clark electrode (Koblizek et al.); cited from earlier work
Tyr222->Phe = settings: code T4; cited from earlier work
[4] = test system: thylakoids from Amaranthus retroflexus, Mutant; assay type: biochemical; settings: herbicide concentration 10^-6 M
Gly228->Val = settings: cited from earlier work
[5] = test system: thylakoids from Amaranthus retroflexus, Wild-type; assay: Biosensor fluorescence response (Table D), wild-type biomediator; assay type: biochemical; settings: herbicide concentration 10^-6 M
I1e229→Met = settings: R. capsulatus; cited from earlier work
Thr226->Met = settings: cited from earlier work
D1 protein Phe255->Tyr = D1 protein Phe255->Tyr (Chlamydomonas reinhardtii, UniProt P07753, F255Y); settings: code Ar207+; cited from earlier work
Vicia faba thylakoids = Vicia faba thylakoids (Vicia faba, UniProt P13910); assay: Biosensor fluorescence response, immobilized thylakoids (Table A); assay type: biochemical; settings: contact time 20 min
Description: as §1

Phe216->Leu = settings: cited from earlier work
Phe216→Val = settings: cited from earlier work
Thr226->Ala = settings: cited from earlier work
I1e228->Leu = settings: cited from earlier work
I1e229->Cys = settings: cited from earlier work
[6] = Table B, first column Diuron 10^-8 M, contact time 15 min
[7] = Table B, second column Diuron 10^-8 M, contact time 15 min
[8] = Diuron 10^-9 M, after regeneration

In the case of `CN(C)C(=O)Nc1ccc(Cl)c(Cl)c1` [Diuron], the “Resistance R/S” value (PhC2,6―Pro) is given as “patron 1”, the “sensitivity (concentration)” value (PS II) is given as “lower than nanomolar” and the “Resistance R/S” value (I1e229->Ala) is given as “Diuron 1”. For the same compound, the “Resistance R/S” value (Phe216->Thr) was “Diuron 1”, the “Resistance R/S” value (Gly228->Arg) was “Diuron 1” and the “Supersensitivity R/S” value (D1 protein A/a251->lIe) was “Diuron 0,6”. For the same compound, the sensitivity (monoclonal antibodies) was 200 pM, the “Supersensitivity R/S” value [1] was “Diuron 0,8” and the Area [2, 6] was 12700. For the same compound, the Fv/Fm [2, 6] was 0,768, the inhibition at 0.01 µM [2, 6] was 88% and the Area [2, 7] was 10400. For the same compound, the Fv/Fm [2, 7] was 0,756, the inhibition at 0.01 µM [2, 7] was 71% and the Area ([2]; Table C, Diuron 10^-7M, 10 min) was 7830. The Fv/Fm ([2]; Table C, Diuron 10^-7M, 10 min) was 0,746, the inhibition at 0.1 µM ([2]; Table C, Diuron 10^-7M, 10 min) was 32% and the Area ([2]; Table C, Diuron 10^-7M, 40 min) was 6120. For the same compound, the Fv/Fm ([2]; Table C, Diuron 10^-7M, 40 min) was 0,711, the inhibition at 0.1 µM ([2]; Table C, Diuron 10^-7M, 40 min) was 47% and the Area ([2]; Table C, Diuron 10^-7M, 50 min) was 5090. The Fv/Fm ([2]; Table C, Diuron 10^-7M, 50 min) was 0,700, the inhibition at 0.1 µM ([2]; Table C, Diuron 10^-7M, 50 min) was 56% and the Area ([2]; Table C, Diuron 10^-7M, 60 min) was 4160. For the same compound, the Fv/Fm ([2]; Table C, Diuron 10^-7M, 60 min) was 0,684, the inhibition at 0.1 µM ([2]; Table C, Diuron 10^-7M, 60 min) was 64% and the “Supersensitivity R/S” value (D1 protein Asn266->Asp) was “Diuron 0,7”. The sensitivity [3] was 10^-10 mol/l, the “Supersensitivity R/S” value (Tyr222->Phe) was “Diuron <0,0001” and the “Area % inhibition Mutant” value [4] was 96%. The “Resistance R/S” value (Gly228->Val) was “Diuron 1”, the “Area % inhibition Wild-type” value [5] was 99% and the “Resistance R/S” value (I1e229→Met) was “Diuron 1”. The “Resistance R/S” value (Thr226->Met) was “Diuron 1”, the “Supersensitivity R/S” value (D1 protein Phe255->Tyr) was “Diuron 0,6-0,8” and the Area (Vicia faba thylakoids; Diuron 10^-6 M, area over the fluorescence curve) was 10300. The inhibition at 1 µM (Vicia faba thylakoids; Diuron 10^-6 M, inhibition of area vs control) was 93%, the Fv/Fm (Vicia faba thylakoids; Diuron 10^-6 M, mean of at least three measures) was 0,540 and the Area (Vicia faba thylakoids; [8]) was 4030. For the same compound, the Fv/Fm (Vicia faba thylakoids; [8]) was 0,475, the inhibition at 0.001 µM (Vicia faba thylakoids; [8]) was 60% and the “Resistance R/S” value (Phe216->Leu) was “Diuron 1”. For the same compound, the “Resistance R/S” value (Phe216→Val) was “Diuron 1”, the “Resistance R/S” value (Thr226->Ala) was “Diuron 1” and the “Resistance R/S” value (I1e228->Leu) was “Diuron 1”. The “Resistance R/S” value (I1e229->Cys) was “Diuron 1”.
